Test results reported in PubChem BioAssay AID1259411 (Chemical Carcinogenesis Research Information System (CCRIS), 2018).
The source made the active and inactive calls. How the calls were made is not given here.

Tested on: rodent carcinogenicity bioassays, tumor incidence
Assay: CCRIS carcinogenicity studies
Method in brief: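 NCI-built, expert-reviewed records of carcinogenicity and related test outcomes (mutagenicity, tumor promotion/inhibition) compiled from published and report sources, historical span 1985-2011, not updated.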

Measured: carcinogen call

Clc1cc2c(c(Cl)c1Cl)Oc1cc(Cl)c(Cl)c(Cl)c1O2
inactive: Species: MOUSE, Strain/Sex: SWISS/FEMALE, Route: DERMAL, Dose: 0, 0.01 UG (SUSPENDED IN 0.1 ML ACETONE APPLIED 3 DAYS/WK) inactive; negative | Species: MOUSE, Strain/Sex: SWISS/MALE, Route: DERMAL, Dose: 0, 0.01 UG (SUSPENDED IN 0.1 ML ACETONE APPLIED 3 DAYS/WK) inactive; negative
equivocal: Species: RAT, Strain/Sex: OSBORNE-MENDEL/MALE, Route: GAVAGE, Dose: 0, 1.25, 2.5, 5 UG/KG/WK (9:1 CORN OIL-ACETONE, 2 D/WK) FOR 104 WK (STUDY DURATION: 105-108 WK), Dose: 0, 1.25, 2.5, 5 UG/KG/WK (9:1 CORN OIL-ACETONE, 2 D/WK) FOR 104 WK (STUDY DURATION: 105-108 WK), Tumor Site: Type of Lesion: LIVER: NEOPLASTIC NODULE, HEPATOCELLULAR CARCINOMA
active: Species: MOUSE, Strain/Sex: B6C3F1/FEMALE, Route: GAVAGE, Dose: 0, 2.5, 5.0, 10.0 UG/KG/WK (9:1 CORN OIL-ACETONE, 2 D/WK) FOR 104 WK (STUDY DURATION: 105-108 WK), Dose: 0, 2.5, 5.0, 10.0 UG/KG/WK (9:1 CORN OIL-ACETONE, 2 D/WK) FOR 104 WK (STUDY DURATION: 105-108 WK), Tumor Site: Type of Lesion: LIVER: HEPATOCELLULAR ADENOMA OR CARCINOMA active; positive | Species: MOUSE, Strain/Sex: B6C3F1/MALE, Route: GAVAGE, Dose: 0, 1.25, 2.5, 5 UG/KG/WK (9:1 CORN OIL-ACETONE, 2 D/WK) FOR 104 WK (STUDY DURATION: 105-108 WK), Dose: 0, 1.25, 2.5, 5 UG/KG/WK (9:1 CORN OIL-ACETONE, 2 D/WK) FOR 104 WK (STUDY DURATION: 105-108 WK), Tumor Site: Type of Lesion: LIVER: HEPATOCELLULAR ADENOMA, CARCINOMA active; positive | Species: RAT, Strain/Sex: OSBORNE-MENDEL/FEMALE, Route: GAVAGE, Dose: 0, 1.25, 2.5, 5 UG/KG/WK (9:1 CORN OIL-ACETONE, 2 D/WK) FOR 104 WK (STUDY DURATION: 105-108 WK), Dose: 0, 1.25, 2.5, 5 UG/KG/WK (9:1 CORN OIL-ACETONE, 2 D/WK) FOR 104 WK (STUDY DURATION: 105-108 WK), Tumor Site: Type of Lesion: LIVER: NEOPLASTIC NODULE, HEPATOCELLULAR CARCINOMA active; positive

C1COCCO1
active: Species: MOUSE, Strain/Sex: B6C3F1/FEMALE, Route: ORAL, Dose: 0, 0.5, 1.0% (V/V) IN DRINKING WATER, Dose: 0, 0.5, 1.0% (V/V) IN DRINKING WATER, Tumor Site: Type of Lesion: LIVER: HEPATOCELLULAR CARCINOMA OR ADENOMA active; positive | Species: MOUSE, Strain/Sex: B6C3F1/MALE, Route: ORAL, Dose: 0, 0.5, 1.0% (V/V) IN DRINKING WATER, Dose: 0, 0.5, 1.0% (V/V) IN DRINKING WATER, Tumor Site: Type of Lesion: LIVER: HEPATOCELLULAR CARCINOMA OR ADENOMA active; positive | Species: MOUSE, Strain/Sex: BDF1/FEMALE, Route: ORAL, Dose: 0, 500, 2000, 8000 PPM IN DRINKING WATER FOR 104 WK (STUDY DURATION: 105 WK), Dose: 0, 500, 2000, 8000 PPM IN DRINKING WATER FOR 104 WK (STUDY DURATION: 105 WK), Tumor Site: Type of Lesion: LIVER: HEPATOCELLULAR ADENOMA, HEPATOCELLULAR CARCINOMA active; positive | Species: MOUSE, Strain/Sex: BDF1/MALE, Route: ORAL, Dose: 0, 500, 2000, 8000 PPM IN DRINKING WATER FOR 104 WK (STUDY DURATION: 105 WK), Dose: 0, 500, 2000, 8000 PPM IN DRINKING WATER FOR 104 WK (STUDY DURATION: 105 WK), Tumor Site: Type of Lesion: LIVER: HEPATOCELLULAR ADENOMA, HEPATOCELLULAR CARCINOMA active; positive | Species: RAT, Strain/Sex: F344/FEMALE, Route: ORAL, Dose: 0, 200, 1000, 5000 PPM IN DRINKING WATER FOR 104 WK (STUDY DURATION: 105 WK), Dose: 0, 200, 1000, 5000 PPM IN DRINKING WATER FOR 104 WK (STUDY DURATION: 105 WK), Tumor Site: Type of Lesion: NASAL CAVITY: TUMOR, LIVER: HEPATOCELLULAR ADENOMA, HEPATOCELLULAR CARCINOMA, MAMMARY GLAND: TUMOR, Tumor Site: Type of Lesion: NASAL CAVITY: TUMOR, LIVER: HEPATOCELLULAR ADENOMA, HEPATOCELLULAR CARCINOMA, MAMMARY GLAND: TUMOR active; positive | Species: RAT, Strain/Sex: F344/MALE, Route: ORAL, Dose: 0, 200, 1000, 5000 PPM IN DRINKING WATER FOR 104 WK (STUDY DURATION: 105 WK), Dose: 0, 200, 1000, 5000 PPM IN DRINKING WATER FOR 104 WK (STUDY DURATION: 105 WK), Tumor Site: Type of Lesion: NASAL CAVITY: TUMOR, LIVER: HEPATOCELLULAR ADENOMA, HEPATOCELLULAR CARCINOMA, PERITONEUM: MESOTHELIOMA, SUBCUTIS: FIBROM, Tumor Site: Type of Lesion: NASAL CAVITY: TUMOR, LIVER: HEPATOCELLULAR ADENOMA, HEPATOCELLULAR CARCINOMA, PERITONEUM: MESOTHELIOMA, SUBCUTIS: FIBROM active; positive | Species: RAT, Strain/Sex: OSBORNE-MENDEL/FEMALE, Route: ORAL, Dose: 0, 0.5, 1.0% (V/V) IN DRINKING WATER, Dose: 0, 0.5, 1.0% (V/V) IN DRINKING WATER, Tumor Site: Type of Lesion: NASAL TURBINATES: SQUAMOUS CELL CARCINOMA, LIVER: HEPATOCELLULAR ADENOMA active; positive | Species: RAT, Strain/Sex: OSBORNE-MENDEL/MALE, Route: ORAL, Dose: 0, 0.5, 1.0% (V/V) IN DRINKING WATER, Dose: 0, 0.5, 1.0% (V/V) IN DRINKING WATER, Tumor Site: Type of Lesion: NASAL TURBINATES: SQUAMOUS CELL CARCINOMA active; positive | Species: RAT, Strain/Sex: SHERMAN/MALE,FEMALE, Route: ORAL, Dose: 0.01, 0.1, 1.0% IN DRINKING WATER FOR UP TO 716 D, Dose: 0.01, 0.1, 1.0% IN DRINKING WATER FOR UP TO 716 D, Tumor Site: Type of Lesion: LIVER: HEPATOCELLULAR CARCINOMA, CHOLANGIOMA active; positive | Species: RAT, Strain/Sex: SPRAGUE-DAWLEY/MALE, Route: ORAL, Dose: 0.75, 1.0, 1.4, 1.8% IN DRINKING WATER FOR 13 MO, Dose: 0.75, 1.0, 1.4, 1.8% IN DRINKING WATER FOR 13 MO, Tumor Site: Type of Lesion: NASAL CAVITY: SQUAMOUS CELL CARCINOMA, ADENOCARCINOMA, LIVER: HEPATOMA, HEPATOCELLULAR CARCINOMA active; positive | Species: RAT, Strain/Sex: WISTAR/MALE, Route: ORAL, Dose: 1% IN DRINKING WATER FOR 63 WK, Tumor Site: Type of Lesion: LIVER: NEOPLASTIC NODULE, HEPATOCELLULAR CARCINOMA active; positive

CNCCC(Oc1ccc(C(F)(F)F)cc1)c1ccccc1 (stereo not drawn)
inactive: Species: MOUSE, Strain/Sex: B6C3F1/FEMALE, Route: ORAL, Dose: 0, 0.001, 0.004, 0.01% IN DIET FOR 24 MO (STUDY DURATION: 24 MO), Dose: 0, 0.001, 0.004, 0.01% IN DIET FOR 24 MO (STUDY DURATION: 24 MO) inactive; negative | Species: MOUSE, Strain/Sex: B6C3F1/MALE, Route: ORAL, Dose: 0, 0.001, 0.004, 0.01% IN DIET FOR 24 MO (STUDY DURATION: 24 MO), Dose: 0, 0.001, 0.004, 0.01% IN DIET FOR 24 MO (STUDY DURATION: 24 MO) inactive; negative | Species: RAT, Strain/Sex: F344/FEMALE, Route: ORAL, Dose: 0, 0.001, 0.0045, 0.02% IN DIET FOR 24 MO (STUDY DURATION: 24 MO), Dose: 0, 0.001, 0.0045, 0.02% IN DIET FOR 24 MO (STUDY DURATION: 24 MO) inactive; negative | Species: RAT, Strain/Sex: F344/MALE, Route: ORAL, Dose: 0, 0.001, 0.0045, 0.02% IN DIET FOR 24 MO (STUDY DURATION: 24 MO), Dose: 0, 0.001, 0.0045, 0.02% IN DIET FOR 24 MO (STUDY DURATION: 24 MO) inactive; negative

COc1cc2c(c3c1c(=O)c1ccccc1n3C)C=CC(C)(C)O2
active: Species: RAT, Strain/Sex: SPRAGUE-DAWLEY/FEMALE, Route: INTRAPERITONEAL, Dose: 0, 3.75, 7.5, 15 MG/KG FOR 52 WK (STUDY DURATION: 80-82 WK), Dose: 0, 3.75, 7.5, 15 MG/KG FOR 52 WK (STUDY DURATION: 80-82 WK), Tumor Site: Type of Lesion: MAMMARY GLAND: FIBROADENOMA, PERITONEAL CAVITY: SARCOMA OR FIBROSARCOMA OR MESOTHELIOMA active; positive | Species: RAT, Strain/Sex: SPRAGUE-DAWLEY/MALE, Route: INTRAPERITONEAL, Dose: 0, 3.75, 7.5, 15 MG/KG FOR 51-52 WK (STUDY DURATION: 51-82 WK), Dose: 0, 3.75, 7.5, 15 MG/KG FOR 51-52 WK (STUDY DURATION: 51-82 WK), Tumor Site: Type of Lesion: MUSCULOSKELETAL SYSTEM: OSTEOSARCOMA, PERITONEAL CAVITY: SARCOMA OR FIBROSARCOMA OR MESOTHELIOMA active; positive
